Experimental data: ChEMBL document CHEMBL1201861, “Genomics of Drug Sensitity in Cancer screening data, Wellcome Trust Sanger Institute”

Tests used:
Assay in all cases: cells
NCI-H446 = assay type: functional, cell-based, Homo sapiens; details: Homo sapiens, NCI-H446;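 further: growth inhibition of NCI-H446 cells determined by a cell viability assay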
Description: SANGER: Inhibition of human NCI-H446 cell growth in a cell viability assay.

HD-MY-Z = assay type: functional, cell-based, Homo sapiens; details: Homo sapiens, HD-MY-Z;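 further: growth inhibition of HD-MY-Z cells, read out with a cell viability assay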
Description: SANGER: Inhibition of human HD-MY-Z cell growth in a cell viability assay.

EW-11 = assay type: functional, cell-based, Homo sapiens; details: Homo sapiens, EW-11;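 further: growth inhibition of human EW-11 cells, measured with a cell viability assay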
Description: SANGER: Inhibition of human EW-11 cell growth in a cell viability assay.

SF-268 = assay type: functional, cell-based, Homo sapiens; details: Homo sapiens, SF-268;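 further: growth inhibition of SF-268 cells determined with a cell viability assay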
Description: SANGER: Inhibition of human SF268 cell growth in a cell viability assay.

NCI-H23 = assay type: functional, cell-based, Homo sapiens; details: Homo sapiens, NCI-H23;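 further: cell viability assay measuring growth inhibition of NCI-H23 cells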
Description: SANGER: Inhibition of human NCI-H23 cell growth in a cell viability assay.

HH = assay type: functional, cell-based, Homo sapiens; details: Homo sapiens, HH
Description: SANGER: Inhibition of human HH cell growth in a cell viability assay.

ALL-PO = assay type: functional, cell-based, Homo sapiens; details: Homo sapiens, ALL-PO;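 further: growth inhibition of ALL-PO cells, read out by a cell viability assay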
Description: SANGER: Inhibition of human ALL-PO cell growth in a cell viability assay.

MHH-NB-11 = assay type: functional, cell-based, Homo sapiens; details: Homo sapiens, MHH-NB-11;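 further: growth inhibition of human MHH-NB-11 cells, read out by a cell viability assay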
Description: SANGER: Inhibition of human MHH-NB-11 cell growth in a cell viability assay.

KM-H2 = assay type: functional, cell-based, Homo sapiens; details: Homo sapiens, KM-H2;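 further: growth inhibition of KM-H2 cells, read out by a cell viability assay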
Description: SANGER: Inhibition of human KM-H2 cell growth in a cell viability assay.

COLO-800 = assay type: functional, cell-based, Homo sapiens; details: Homo sapiens, COLO-800;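 further: growth inhibition of COLO-800 cells, read out with a cell viability assay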
Description: SANGER: Inhibition of human COLO-800 cell growth in a cell viability assay.

MMAC-SF = assay type: functional, cell-based; details: Homo sapiens;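 further: growth inhibition of human MMAC-SF cells, read out with a cell viability assay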
Description: SANGER: Inhibition of human MMAC-SF cell growth in a cell viability assay.

SJSA-1 = assay type: functional, cell-based, Homo sapiens; details: Homo sapiens, SJSA-1;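 further: growth inhibition of human SJSA-1 cells, read out through a cell viability measurement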
Description: SANGER: Inhibition of human SJSA-1 cell growth in a cell viability assay.

GR-ST = assay type: functional, cell-based, Homo sapiens; details: Homo sapiens, GR-ST
Description: SANGER: Inhibition of human GR-ST cell growth in a cell viability assay.

NCI-H747 = assay type: functional, cell-based, Homo sapiens; details: Homo sapiens, NCI-H747;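 further: growth inhibition of human NCI-H747 cells, read out by a cell viability assay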
Description: SANGER: Inhibition of human NCI-H747 cell growth in a cell viability assay.

CGTH-W-1 = assay type: functional, cell-based, Homo sapiens; details: Homo sapiens, CGTH-W-1;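 further: growth inhibition of human CGTH-W-1 cells measured by cell viability assay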
Description: SANGER: Inhibition of human CGTH-W-1 cell growth in a cell viability assay.

Becker = assay type: functional, cell-based, Homo sapiens; details: Homo sapiens, Becker;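 further: growth inhibition of Becker cells, read out with a cell viability assay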
Description: SANGER: Inhibition of human Becker cell growth in a cell viability assay.

Lu-65 = assay type: functional, cell-based, Homo sapiens; details: Homo sapiens, Lu-65;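 further: growth inhibition of Lu-65 cancer cells, read out by a cell viability assay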
Description: SANGER: Inhibition of human LU-65 cell growth in a cell viability assay.

NCI-H1304 = assay type: functional, cell-based, Homo sapiens; details: Homo sapiens, NCI-H1304;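 further: growth inhibition of the cancer cell line, measured in a cell viability assay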
Description: SANGER: Inhibition of human NCI-H1304 cell growth in a cell viability assay.

SNU-5 = assay type: functional, cell-based, Homo sapiens; details: Homo sapiens, SNU-5;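 further: cell viability readout used to measure growth inhibition in human NCI-SNU-5 cells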
Description: SANGER: Inhibition of human NCI-SNU-5 cell growth in a cell viability assay.

MLMA = assay type: functional, cell-based, Homo sapiens; details: Homo sapiens, MLMA;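 further: growth inhibition of MLMA cells (human), determined through a cell viability readout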
Description: SANGER: Inhibition of human MLMA cell growth in a cell viability assay.

SBC-1 = assay type: functional, cell-based, Homo sapiens; details: Homo sapiens, SBC-1;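 further: cell viability assay measuring growth inhibition of the SBC-1 cell line, IC50 being the concentration that halves growth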
Description: SANGER: Inhibition of human SBC-1 cell growth in a cell viability assay.

KNS-42 = assay type: functional, cell-based; details: Homo sapiens;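 further: growth inhibition of KNS-42 cells, read out with a cell viability assay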
Description: SANGER: Inhibition of human KNS-42 cell growth in a cell viability assay.

NCI-N87 = assay type: functional, cell-based; details: Homo sapiens;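 further: growth inhibition of human NCI-N87 cells, read out with a cell viability assay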
Description: SANGER: Inhibition of human NCI-N87 cell growth in a cell viability assay.

GI-ME-N = assay type: functional, cell-based, Homo sapiens; details: Homo sapiens, GI-ME-N;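 further: growth inhibition of human GI-ME-N cells, read out with a cell viability assay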
Description: SANGER: Inhibition of human GI-ME-N cell growth in a cell viability assay.

ES7 = assay type: functional, cell-based, Homo sapiens; details: Homo sapiens, ES7;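 further: growth inhibition of cultured human ES7 cells, read out as cell viability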
Description: SANGER: Inhibition of human ES7 cell growth in a cell viability assay.

GOTO = assay type: functional, cell-based, Homo sapiens; details: Homo sapiens, GOTO;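 further: growth inhibition of GOTO cells, read out by a cell viability assay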
Description: SANGER: Inhibition of human GOTO cell growth in a cell viability assay.

LXF-289 cell line = assay type: functional, cell-based; details: Homo sapiens
Description: SANGER: Inhibition of human LXF-289 cell growth in a cell viability assay.

RCC10RGB = assay type: functional, cell-based, Homo sapiens; details: Homo sapiens, RCC10RGB;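 further: growth inhibition of human RCC10RGB cells, read out by a cell viability assay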
Description: SANGER: Inhibition of human RCC10RGB cell growth in a cell viability assay.

NH-12 = assay type: functional, cell-based, Homo sapiens; details: Homo sapiens, NH-12;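 further: growth inhibition of NH-12 cells, read out with a cell viability assay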
Description: SANGER: Inhibition of human NH-12 cell growth in a cell viability assay.

HCC2218 = assay type: functional, cell-based, Homo sapiens; details: Homo sapiens, HCC2218;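 further: cell viability assay read-out, with IC50 given as the concentration that inhibits growth of the cell line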
Description: SANGER: Inhibition of human HCC2218 cell growth in a cell viability assay.

COLO-824 = assay type: functional, cell-based, Homo sapiens; details: Homo sapiens, COLO-824
Description: SANGER: Inhibition of human COLO-824 cell growth in a cell viability assay.

MPP-89 = assay type: functional, cell-based, Homo sapiens; details: Homo sapiens, MPP-89;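 further: growth inhibition of human MPP-89 cells, read out with a cell viability assay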
Description: SANGER: Inhibition of human MPP-89 cell growth in a cell viability assay.

SNU1 = assay type: functional, cell-based, Homo sapiens; details: Homo sapiens, SNU1;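 further: growth inhibition of human NCI-SNU-1 cells, measured with a cell viability assay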
Description: SANGER: Inhibition of human NCI-SNU-1 cell growth in a cell viability assay.

KP-N-YS = assay type: functional, cell-based, Homo sapiens; details: Homo sapiens, KP-N-YS;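 further: cell viability assay measuring inhibition of cell line growth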
Description: SANGER: Inhibition of human KP-N-YS cell growth in a cell viability assay.

DB = assay type: functional, cell-based, Homo sapiens; details: Homo sapiens, DB
Description: SANGER: Inhibition of human DB cell growth in a cell viability assay.

LB2241-RCC = assay type: functional, cell-based, Homo sapiens; details: Homo sapiens, LB2241-RCC;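 further: cell viability assay measuring how strongly the cultured human renal carcinoma line is prevented from growing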
Description: SANGER: Inhibition of human LB2241-RCC cell growth in a cell viability assay.

NB5 = assay type: functional, cell-based, Homo sapiens; details: Homo sapiens, NB5;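 further: growth inhibition of NB5 cells, read out as cell viability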
Description: SANGER: Inhibition of human NB5 cell growth in a cell viability assay.

SW872 = assay type: functional, cell-based, Homo sapiens; details: Homo sapiens, SW872;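 further: growth inhibition of SW872 cells, read out by a viability assay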
Description: SANGER: Inhibition of human SW872 cell growth in a cell viability assay.

CW-2 = assay type: functional, cell-based, Homo sapiens; details: Homo sapiens, CW-2;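 further: growth inhibition of CW-2 cells, read out by a cell viability assay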
Description: SANGER: Inhibition of human CW-2 cell growth in a cell viability assay.

HCE-T = assay type: functional, cell-based, Homo sapiens; details: Homo sapiens, HCE-T;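 further: cell viability assay read-out, reporting inhibition of HCE-T cell growth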
Description: SANGER: Inhibition of human HCE-T cell growth in a cell viability assay.

SK-MEL-2 = assay type: functional, cell-based, Homo sapiens; details: Homo sapiens, SK-MEL-2;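 further: growth inhibition of human SK-MEL-2 cells measured with a cell viability assay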
Description: SANGER: Inhibition of human SK-MEL-2 cell growth in a cell viability assay.

COR-L88 = assay type: functional, cell-based, Homo sapiens; details: Homo sapiens, COR-L88;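 further: growth inhibition of COR-L88 cells, read out with a cell viability assay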
Description: SANGER: Inhibition of human COR-L88 cell growth in a cell viability assay.

OMC-1 = assay type: functional, cell-based, Homo sapiens; details: Homo sapiens, OMC-1;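 further: growth inhibition of the OMC-1 cell line, measured by a cell viability assay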
Description: SANGER: Inhibition of human OMC-1 cell growth in a cell viability assay.

NCI-H1838 = assay type: functional, cell-based, Homo sapiens; details: Homo sapiens, NCI-H1838;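 further: growth inhibition of NCI-H1838 cells, determined with a cell viability readout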
Description: SANGER: Inhibition of human NCI-H1838 cell growth in a cell viability assay.

EW-13 = assay type: functional, cell-based, Homo sapiens; details: Homo sapiens, EW-13; read-out: IC50;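 further: growth inhibition of EW-13 cells, read out with a cell viability assay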
Description: SANGER: Inhibition of human EW-13 cell growth in a cell viability assay.

K562 = assay type: functional, cell-based, Homo sapiens; details: Homo sapiens, K562
Description: SANGER: Inhibition of human K-562 cell growth in a cell viability assay.

NCI-H209 = assay type: functional, cell-based, Homo sapiens; details: Homo sapiens, NCI-H209;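 further: growth inhibition of human NCI-H209 cells, measured by a cell viability assay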
Description: SANGER: Inhibition of human NCI-H209 cell growth in a cell viability assay.

MSTO-211H = assay type: functional, cell-based, Homo sapiens; details: Homo sapiens, MSTO-211H
Description: SANGER: Inhibition of human MSTO-211H cell growth in a cell viability assay.

HT-144 = assay type: functional, cell-based, Homo sapiens; details: Homo sapiens, HT-144
Description: SANGER: Inhibition of human HT-144 cell growth in a cell viability assay.

OS-RC-2 = assay type: functional, cell-based, Homo sapiens; details: Homo sapiens, OS-RC-2;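 further: growth inhibition of human OS-RC-2 cells, measured by a cell viability assay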
Description: SANGER: Inhibition of human OS-RC-2 cell growth in a cell viability assay.

NC(=O)c1ccc(N(C(N)=O)c2c(F)cccc2F)nc1-c1ccc(F)cc1F [VX-702] gave an IC50 (NCI-H446) greater than 2000 nM, an IC50 (HD-MY-Z) greater than 2000 nM and an IC50 (EW-11) greater than 2000 nM. The IC50 (SF-268) was greater than 2000 nM, the IC50 (NCI-H23) was greater than 2000 nM and the IC50 (HH) was greater than 2000 nM. The IC50 (ALL-PO) was greater than 2000 nM, the IC50 (MHH-NB-11) was greater than 2000 nM and the IC50 (KM-H2) was greater than 2000 nM. The IC50 (COLO-800) was greater than 2000 nM, the IC50 (MMAC-SF) was greater than 2000 nM and the IC50 (SJSA-1) was greater than 2000 nM. The IC50 (GR-ST) was greater than 2000 nM, the IC50 (NCI-H747) was greater than 2000 nM and the IC50 (CGTH-W-1) was greater than 2000 nM. For the same molecule, the IC50 (Becker) was greater than 2000 nM, the IC50 (Lu-65) was greater than 2000 nM and the IC50 (NCI-H1304) was greater than 2000 nM. It also gave an IC50 (SNU-5) greater than 2000 nM, an IC50 (MLMA) greater than 2000 nM and an IC50 (SBC-1) of 236 nM. The IC50 (KNS-42) was greater than 2000 nM, the IC50 (NCI-N87) was greater than 2000 nM and the IC50 (GI-ME-N) was greater than 2000 nM. The IC50 (ES7) was greater than 2000 nM, the IC50 (GOTO) was greater than 2000 nM and the IC50 (LXF-289 cell line) was greater than 2000 nM. The IC50 (RCC10RGB) was greater than 2000 nM, the IC50 (NH-12) was greater than 2000 nM and the IC50 (HCC2218) was 497 nM. The IC50 (COLO-824) was greater than 2000 nM, the IC50 (MPP-89) was greater than 2000 nM and the IC50 (SNU1) was greater than 2000 nM. For the same molecule, the IC50 (KP-N-YS) was greater than 2000 nM, the IC50 (DB) was greater than 2000 nM and the IC50 (LB2241-RCC) was greater than 2000 nM. For the same molecule, the IC50 (NB5) was greater than 2000 nM, the IC50 (SW872) was greater than 2000 nM and the IC50 (CW-2) was greater than 2000 nM. The IC50 (HCE-T) was greater than 2000 nM, the IC50 (SK-MEL-2) was greater than 2000 nM and the IC50 (COR-L88) was 335 nM. For the same molecule, the IC50 (OMC-1) was greater than 2000 nM, the IC50 (NCI-H1838) was greater than 2000 nM and the IC50 (EW-13) was greater than 2000 nM. For the same molecule, the IC50 (K562) was greater than 2000 nM, the IC50 (NCI-H209) was 176 nM and the IC50 (MSTO-211H) was greater than 2000 nM. For the same molecule, the IC50 (HT-144) was greater than 2000 nM and the IC50 (OS-RC-2) was greater than 2000 nM.
